In publication PMC6818106, “Synthesis of thiazolidin-4-ones and thiazinan-4-ones from 1-(2-aminoethyl)pyrrolidine as acetylcholinesterase inhibitors” (Journal of Enzyme Inhibition and Medicinal Chemistry, 2019):

Experiments:
AChE [1] = target: T1, AChE (Rattus norvegicus, UniProt P37136); assay: In vitro AChE activity (Ellman method) in hippocampus homogenate; format: biochemical; details: for IC50: rat hippocampus homogenate, calculated with GraphPad Prism 5, read-out: IC50 of AChE inhibition, Hippocampus; for concentration from which AChE activity was inhibited, hippocampus: vs control group (water and methanol), p < .05, tested 0.1-250 μM
T1 construct: the use of crude homogenised from rat’s brain structures, as used in the present work; from tissue; host or cells: Wistar rat cerebral cortex, homogenate supernatant
Protocol: (§1) In vitro was evaluated the potential inhibition of thiazolidin-4-ones and thiazinan-4-ones against AChE activity enzyme in hippocampus and cerebral cortex of Wistar rats (60 days, 250–300 g), since it is well described that these two structures in the brain play an important role in memory. All procedures involving the animals were approved by the Committee of Ethics in Animal Experimentation of UFPel (CEEA 9219). The animals were submitted to euthanasia and the brain was removed. Subsequently, the hippocampus and cerebral cortex were separated and homogenised in buffer Tris HCl 10 mM (pH 7.4). The homogenates were centrifuged at 1800 rpm for 10 min and the supernatant was used for in vitro analyses of the potential inhibitory effect of thiazolidin-4-one and thiazinan-4-ones on AChE activity.
(§2) The compounds were solubilised in methanol and prepared in different concentrations (0.1, 0.5, 1, 5, 10, 25, 50, 100 and 250 μM). […] The thiocholine, in turn, reacts with DTNB to form a chromophore, 5-thio-2-nitrobenzoic, which is quantified spectrophotometrically at 412 nm. The enzymatic activity was expressed in μmols of AcSCh/h/mg protein. Proteins were determined by the method of Bradford[29] using the Coomassie Blue reagent. Bovine albumin was used as standard.

AChE [2] = target: T1, AChE; assay: In vitro AChE activity (Ellman method) in cerebral cortex homogenate; format: biochemical; details: for IC50: rat cerebral cortex homogenate, calculated with GraphPad Prism 5, read-out: IC50 of AChE inhibition, Cortex; for concentration from which AChE activity was inhibited, cerebral cortex: vs control group (water and methanol), p < .05, tested 0.1-250 μM
Protocol: as §1, §2

cortical astrocytes = assay: Cytotoxicity in cortical astrocyte primary culture (MTT cell viability); format: cell-based; details: 100 μM, 48 h and 72 h; p > .05
Protocol: In the evaluation of the cytotoxicity of the thiazolidin-4-ones and thiazinan-4-ones in astrocytes, Wistar rats (1–2 days) were used to obtain cortical astrocytes, which were cultured in 96-well plates (3x10^4 per well) and maintained with Dulbecco’s modified Eagle’s medium (DMEM) supplemented with 10% Bovine Foetal Serum (FBS)[30]. Cells were maintained under standard conditions (5% CO2, 37 °C and humidified atmosphere) for 15 days, receiving periodic exchange of culture medium until treatments were received. After time and maturation, the astrocytes were treated with the compounds at the concentration of 100 μM. Cells were exposed to this concentration for 48 h and 72 h. After treatment, cell viability was analysed by the test of 3-(4,5-dimethylthiazol-2yl)-2,5-diphenyltetrazolium bromide (MTT). This method consists of measuring the number of cells with the metabolically active mitochondria, based on the reduction of the tetrazolium salt to the formazan crystals. The absorbance was determined on a microplate reader at 492 nm. The absorbance is linearly proportional to the number of cells with active mitochondria, indicating how many viable cells remained at the end of the treatment.

T1 sequence (P37136 32-614): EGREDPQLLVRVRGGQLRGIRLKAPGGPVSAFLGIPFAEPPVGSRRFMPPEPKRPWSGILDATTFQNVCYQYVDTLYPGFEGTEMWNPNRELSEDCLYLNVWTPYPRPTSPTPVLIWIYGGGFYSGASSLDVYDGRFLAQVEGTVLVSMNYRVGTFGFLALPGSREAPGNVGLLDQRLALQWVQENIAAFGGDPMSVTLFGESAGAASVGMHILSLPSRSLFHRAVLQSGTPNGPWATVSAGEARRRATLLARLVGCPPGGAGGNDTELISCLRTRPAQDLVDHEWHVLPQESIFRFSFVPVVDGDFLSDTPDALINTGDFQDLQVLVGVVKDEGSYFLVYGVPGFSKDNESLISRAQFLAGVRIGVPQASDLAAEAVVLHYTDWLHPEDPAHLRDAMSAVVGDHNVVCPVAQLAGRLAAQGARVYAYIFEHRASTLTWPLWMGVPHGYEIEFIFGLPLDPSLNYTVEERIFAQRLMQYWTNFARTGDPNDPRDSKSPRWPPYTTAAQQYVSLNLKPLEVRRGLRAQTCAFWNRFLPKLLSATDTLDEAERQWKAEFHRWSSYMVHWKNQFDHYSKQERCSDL

Compound | IC50 (AChE [1]) | IC50 (AChE [2]) | concentration from which AChE activity was inhibited, hippocampus (AChE [1]) | cell viability of astrocyte primary culture (MTT) (cortical astrocytes) | concentration from which AChE activity was inhibited, cerebral cortex (AChE [2]) | AChE inhibition activity (qualitative) (AChE [1]; disubstituted aryl, tissue not stated in the sentence (follows hippocampus results))
O=C1CSC(c2ccccc2)N1CCN1CCCC1 (centres unmarked) [5a, 2-phenyl-3-(2-(pyrrolidin-1-yl)ethyl)thiazolidin-4-one] | 30.9 µM | > 250 µM |  |  |  | 
Cc1ccc(C2SCCC(=O)N2CCN2CCCC2)cc1 (centres unmarked) [6k, 3-(2-(pyrrolidin-1-yl)ethyl)-2-(p-tolyl)-1,3-thiazinan-4-one] | 4.46 µM | 6.83 µM | ≥ 1 µM | did not change de cell viability | ≥ 5 µM | 
COc1ccc(C2SCCC(=O)N2CCN2CCCC2)cc1 (centres unmarked) [6n, 2-(4-methoxyphenyl)-3-(2-(pyrrolidin-1-yl)ethyl)-1,3-thiazinan-4-one] | 17 µM | 22.2 µM |  | did not change de cell viability | ≥ 5 µM | 
2-(2-methoxyphenyl)-3-(2-(pyrrolidin-1-yl)ethyl)-1,3-thiazinan-4-one [6l] | 84.9 µM | > 250 µM | ≥ 100 µM |  | ≥ 100 µM | 
COc1cccc(C2SCCC(=O)N2CCN2CCCC2)c1OC (centres unmarked) [6p, 2-(2,3-dimethoxyphenyl)-3-(2-(pyrrolidin-1-yl)ethyl)-1,3-thiazinan-4-one] |  |  |  |  |  | decrease in activity
COc1cccc(C2SCCC(=O)N2CCN2CCCC2)c1 (centres unmarked) [6m, 2-(3-methoxyphenyl)-3-(2-(pyrrolidin-1-yl)ethyl)-1,3-thiazinan-4-one] | 90.3 µM | 24 µM |  |  | ≥ 25 µM | 
O=C1CCSC(c2cccc(O)c2)N1CCN1CCCC1 (centres unmarked) [6o, 2-(3-hydroxyphenyl)-3-(2-(pyrrolidin-1-yl)ethyl)-1,3-thiazinan-4-one] | 69.6 µM | 25.7 µM |  |  | ≥ 25 µM | 
O=C1CSC(c2ccc(Cl)cc2)N1CCN1CCCC1 (centres unmarked) [5g, 2-(4-chlorophenyl)-3-(2-(pyrrolidin-1-yl)ethyl)thiazolidin-4-one] | > 250 µM | > 250 µM |  |  |  | 
O=C1CCSC(c2ccc([N+](=O)[O-])cc2)N1CCN1CCCC1 (centres unmarked) [6j, 2-(4-nitrophenyl)-3-(2-(pyrrolidin-1-yl)ethyl)-1,3-thiazinan-4-one] | 9.32 µM | 40.1 µM | ≥ 1 µM | did not change de cell viability | ≥ 10 µM | 
COc1ccc(C2SCC(=O)N2CCN2CCCC2)cc1 (centres unmarked) [5n, 2-(4-methoxyphenyl)-3-(2-(pyrrolidin-1-yl)ethyl)thiazolidin-4-one] | > 250 µM | > 250 µM |  |  |  | 
O=C1CSC(c2cccc([N+](=O)[O-])c2)N1CCN1CCCC1 (centres unmarked) [5i, 2-(3-nitrophenyl)-3-(2-(pyrrolidin-1-yl)ethyl)thiazolidin-4-one] | 81.6 µM | 10.2 µM | ≥ 10 µM |  | ≥ 10 µM | 
O=C1CCSC(c2ccc(Cl)cc2)N1CCN1CCCC1 (centres unmarked) [6g, 2-(4-chlorophenyl)-3-(2-(pyrrolidin-1-yl)ethyl)-1,3-thiazinan-4-one] | 50.5 µM | 57.2 µM |  |  |  | 
O=C1CCSC(c2ccccc2[N+](=O)[O-])N1CCN1CCCC1 (centres unmarked) [6h, 2-(2-nitrophenyl)-3-(2-(pyrrolidin-1-yl)ethyl)-1,3-thiazinan-4-one] | 92.8 µM | 11 µM | 5 µM | did not change de cell viability | ≥ 1 µM | 
O=C1CCSC(c2ccccc2)N1CCN1CCCC1 (centres unmarked) [6a, 2-phenyl-3-(2-(pyrrolidin-1-yl)ethyl)-1,3-thiazinan-4-one] | 5.2 µM | 7.4 µM | ≥ 1 µM | did not change de cell viability | ≥ 5 µM | 
Cc1ccc(C2SCC(=O)N2CCN2CCCC2)cc1 (centres unmarked) [5k, 3-(2-(pyrrolidin-1-yl)ethyl)-2-p-tolylthiazolidin-4-one] | > 250 µM | > 250 µM |  |  |  | 
O=C1CCSC(c2cccc([N+](=O)[O-])c2)N1CCN1CCCC1 (centres unmarked) [6i, 2-(3-nitrophenyl)-3-(2-(pyrrolidin-1-yl)ethyl)-1,3-thiazinan-4-one] | 29.4 µM | 50.6 µM | ≥ 50 µM |  | ≥ 50 µM | 
O=C1CSC(c2cccc(O)c2)N1CCN1CCCC1 (centres unmarked) [5o, 2-(3-hydroxyphenyl)-3-(2-(pyrrolidin-1-yl)ethyl)thiazolidin-4-one] | 30.6 µM | 27.6 µM |  |  |  | 
O=C1CSC(c2ccccc2[N+](=O)[O-])N1CCN1CCCC1 (centres unmarked) [5h, 2-(2-nitrophenyl)-3-(2-(pyrrolidin-1-yl)ethyl)thiazolidin-4-one] | 105 µM | > 250 µM |  |  |  | 
O=C1CSC(c2ccc([N+](=O)[O-])cc2)N1CCN1CCCC1 (centres unmarked) [5j, 2-(4-nitrophenyl)-3-(2-(pyrrolidin-1-yl)ethyl)thiazolidin-4-one] | 8.68 µM | 28.1 µM | ≥ 1 µM | did not change de cell viability | ≥ 1 µM | 
